The experiment deals with GABA-B receptor (Rattus norvegicus (Rat), UniProt O88871+Q9Z0U4). Put plainly: [35S]GTPgS binding assay, rat cortical membranes, in presence of EC25 GABA. The experiment is classed as biochemical. The settings on record: rat brain cortex membranes; in presence of 1 μM GABA (EC25); positive allosteric modulation. As for the experimental part: Preparation of Rat Brain Membranes for Native Receptor Assays
Membranes from rat brain cortex were prepared as described in detail by Olpe et al. and stored at concentrations of 1.66 mg/mL protein at −80° C. until required. (Olpe, H.-R, et al. Eur J Pharmacol 1990; 187: 27-38).
[^35S] GTPgS Binding Assay
The composition of the assay mixtures [in a final volume of 200 μL in 96-well U-bottom plates (Greiner) was as follows: 50 mM Tris-HCl buffer, pH 7.7, 10 mM MgCl2, 0.2 mM EGTA, 2 mM CaCl2, 100 mM NaCl, 20 µM guanosine 5′-diphosphate (Sigma), 0.3 nM [^35S]GTPgS (1250 Ci/mmol (PerkinElmer)), and the test compounds at increasing concentrations (from 10 nM up to […]), […] of rat cortical membranes, and a concentration of […], that has been observed in previous experiments to correspond to the EC25, a concentration that gives 25% of the maximal response of GABA. The samples were incubated at room temperature for 60 minutes on a shaker. The incubation was stopped by rapid vacuum filtration over glass-fiber filter plates (UniFilter-96 well, GF/B membrane plates, PerkinElmer) using a 96-well plate harvester (TOMTEK© Harvester). The UniFilter plate was washed five times with ice-cold wash buffer (50 mM Tris-HCl buffer, pH 7.7, 10 mM MgCl2, and 100 mM NaCl. After filtration the plate was dried for 90 minutes at 55° C. The plates were closed on the bottom with black sealing membranes, and liquid scintillation cocktail (35 μL, Betaplate Scint, PerkinElmer) was added to each well. After sealing the top of the plate, an additional incubation step of 90 minutes at room temperature followed before measuring the plate. The amount of membrane-bound [^35S]GTPgS was measured using a 96-well plate reader (Microbeta®, PerkinElmer). Nonspecific binding was measured in the presence of unlabeled 10 μM of GTPgS (Millipore) and without GABA. Basal binding was measured in the absence of 1 μM GABA, and maximal binding was measured in the presence of GABA using 1 mM GABA concentrations.
Data analysis. The concentration-response curves of compounds of the present disclosure in the presence of EC25 of GABA-B receptor agonist were generated using the GraphPad Prism® program (GraphPad Software, San Diego, Calif.). Data was normalized using basal binding as 0% and maximal binding as 100%. The curves were fitted by nonlinear regression allowing determination of EC50 values from sigmoidal dose-response curves. Each curve was performed using triplicate sample per date point and 10 concentrations.
On the technique in general: Binding of GTPγS marks nucleotide exchange on a G protein.

Structures are written as SMILES.

As usually defined, the EC50 is the concentration giving half of the maximal effect.

Chain of GABA-B receptor (Q9Z0U4 17-960): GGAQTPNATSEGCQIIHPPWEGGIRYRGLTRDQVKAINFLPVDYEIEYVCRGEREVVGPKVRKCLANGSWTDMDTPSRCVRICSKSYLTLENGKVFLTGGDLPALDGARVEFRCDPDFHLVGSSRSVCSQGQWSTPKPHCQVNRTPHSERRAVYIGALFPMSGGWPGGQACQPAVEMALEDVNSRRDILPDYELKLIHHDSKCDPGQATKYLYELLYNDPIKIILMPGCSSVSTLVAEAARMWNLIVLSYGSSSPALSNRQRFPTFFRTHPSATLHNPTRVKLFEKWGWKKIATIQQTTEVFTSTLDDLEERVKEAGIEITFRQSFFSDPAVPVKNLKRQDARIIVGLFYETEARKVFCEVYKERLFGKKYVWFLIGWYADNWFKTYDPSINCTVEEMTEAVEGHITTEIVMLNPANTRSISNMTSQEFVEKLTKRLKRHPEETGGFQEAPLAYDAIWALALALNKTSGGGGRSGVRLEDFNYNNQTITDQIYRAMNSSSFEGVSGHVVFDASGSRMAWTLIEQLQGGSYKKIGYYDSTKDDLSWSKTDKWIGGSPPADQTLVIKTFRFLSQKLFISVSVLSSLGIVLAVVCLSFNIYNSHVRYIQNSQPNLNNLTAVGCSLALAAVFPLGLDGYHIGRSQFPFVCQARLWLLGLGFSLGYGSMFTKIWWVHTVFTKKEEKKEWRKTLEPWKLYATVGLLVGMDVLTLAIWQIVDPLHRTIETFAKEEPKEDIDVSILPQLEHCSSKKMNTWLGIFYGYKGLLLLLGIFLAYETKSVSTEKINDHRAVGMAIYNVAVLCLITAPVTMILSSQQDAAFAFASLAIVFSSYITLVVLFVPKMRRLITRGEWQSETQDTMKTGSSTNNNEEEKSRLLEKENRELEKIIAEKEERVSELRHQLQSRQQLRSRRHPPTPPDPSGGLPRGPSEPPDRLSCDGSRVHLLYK
Chain of GABA-B receptor (O88871 41-940): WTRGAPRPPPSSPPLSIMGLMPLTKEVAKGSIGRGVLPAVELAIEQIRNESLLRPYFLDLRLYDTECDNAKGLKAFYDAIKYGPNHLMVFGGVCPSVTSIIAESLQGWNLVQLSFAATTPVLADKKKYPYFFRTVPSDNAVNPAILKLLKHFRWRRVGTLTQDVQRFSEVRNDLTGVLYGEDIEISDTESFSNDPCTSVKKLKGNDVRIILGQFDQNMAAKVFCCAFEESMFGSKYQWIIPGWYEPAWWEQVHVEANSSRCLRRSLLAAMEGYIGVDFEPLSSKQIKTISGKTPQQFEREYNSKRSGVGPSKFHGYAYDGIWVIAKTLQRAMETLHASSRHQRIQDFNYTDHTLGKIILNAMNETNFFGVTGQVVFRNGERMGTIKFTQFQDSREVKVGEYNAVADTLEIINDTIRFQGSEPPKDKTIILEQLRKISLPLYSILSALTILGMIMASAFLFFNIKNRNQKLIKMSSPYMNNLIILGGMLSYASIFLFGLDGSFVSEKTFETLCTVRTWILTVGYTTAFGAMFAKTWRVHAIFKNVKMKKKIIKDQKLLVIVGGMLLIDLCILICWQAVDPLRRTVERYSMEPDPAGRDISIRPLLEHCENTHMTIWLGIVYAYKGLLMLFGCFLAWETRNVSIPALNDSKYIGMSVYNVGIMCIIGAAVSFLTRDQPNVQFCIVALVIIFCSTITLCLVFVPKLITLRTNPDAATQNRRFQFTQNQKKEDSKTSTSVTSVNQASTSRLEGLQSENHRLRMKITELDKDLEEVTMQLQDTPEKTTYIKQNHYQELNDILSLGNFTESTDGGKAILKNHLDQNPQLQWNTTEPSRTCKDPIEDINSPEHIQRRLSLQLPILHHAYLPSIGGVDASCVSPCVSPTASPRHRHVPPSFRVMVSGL

For `Cc1cc(N2CCCCC2CCO)n2nc(C(c3ccc(Cl)cc3)C(C)C)cc2n1` (stereo not shown) [Example 4-1, 2-(1-{2-[1-(4-chlorophenyl)-2-methylpropyl]-5-methylpyrazolo[1,5-a]pyrimidin-7-yl}piperidin-2-yl)ethanol], the EC50 is 5 nM. As to `Cc1cc(N2CCCC(F)(F)C2)n2nc(C(c3ccc(Cl)cc3)C(C)C)cc2n1` (stereo not shown) [Example 4-2, 2-[1-(4-chlorophenyl)-2-methylpropyl]-7-(3,3-difluoropiperidin-1-yl)-5-methylpyrazolo[1,5-a]pyrimidine], the EC50 came out at 9 nM. Under `CCCC(c1ccc(Cl)cc1)c1cc2nc(C)cc(N3CCCCC3CCO)n2n1` (stereo not shown) [Example 5-1, 2-(1-{2-[1-(4-chlorophenyl)butyl]-5-methylpyrazolo[1,5-a]pyrimidin-7-yl}piperidin-2-yl)ethanol] stands 3 nM; under `CCCC(c1ccc(Cl)cc1)c1cc2nc(C)cc(N3CCCC(F)(F)C3)n2n1` (stereo not shown) [Example 5-2, 2-[1-(4-chlorophenyl)butyl]-7-(3,3-difluoropiperidin-1-yl)-5-methylpyrazolo[1,5-a]pyrimidine], 7 nM.

With `Cc1cc(N2CCCCC2CCO)n2nc(Cc3cccc(C(F)(F)F)c3)cc2n1` (stereo not shown) [Example 6-1, 2-(1-{5-methyl-2-[3-(trifluoromethyl)benzyl]pyrazolo[1,5-a]pyrimidin-7-yl}piperidin-2-yl)ethanol], the concentration giving a half-maximal response (EC50) stood at 1820 nM.

For `Cc1cc(N2CCCCC2CCO)n2nc(CC34CC5CC(CC(C5)C3)C4)cc2n1` (stereo not shown) [Example 7-1, 2-{1-[5-methyl-2-(tricyclo[3.3.1.1^3′]dec-1-ylmethyl)pyrazolo[1,5-a]pyrimidin-7-yl]piperidin-2-yl}ethanol], the EC50 was determined as 1080 nM.

`Cc1cc(N2CC[C@H]2C(N)=O)n2nc(C(C)c3ccc(C(F)(F)F)cc3)cc2n1` (stereo partly drawn) [Example 8-1, (2S)-1-(5-methyl-2-{1-[4-(trifluoromethyl)phenyl]ethyl}pyrazolo[1,5-a]pyrimidin-7-yl)azetidine-2-carboxamide]: the EC50 is > 10000 nM. Under `Cc1cc(N2CCCCC2CCO)n2nc(C(C)c3ccc(C(F)(F)F)cc3)cc2n1` (stereo not shown) [Example 8-2, 2-[1-(5-methyl-2-{1-[4-(trifluoromethyl)phenyl]ethyl}pyrazolo[1,5-a]pyrimidin-7-yl)piperidin-2-yl]ethanol] stands 87 nM; under `Cc1cc(N2CCC3(COC3)C2)n2nc(C(C)c3ccc(C(F)(F)F)cc3)cc2n1` (stereo not shown) [Example 8-3, 5-methyl-7-(2-oxa-6-azaspiro[3.4]oct-6-yl)-2-{1-[4-(trifluoromethyl)phenyl]ethyl}pyrazolo[1,5-a]pyrimidine], 420 nM; under `Cc1cc(N2CC3(CCOCC3)C2)n2nc(C(C)c3ccc(C(F)(F)F)cc3)cc2n1` (stereo not shown) [Example 8-4, 5-methyl-7-(7-oxa-2-azaspiro[3.5]non-2-yl)-2-{1-[4-(trifluoromethyl)phenyl]ethyl}pyrazolo[1,5-a]pyrimidine], 827 nM. The result for `Cc1cc(N2CCC[C@@H](O)C2)n2nc(C(C)c3ccc(C(F)(F)F)cc3)cc2n1` (stereo partly drawn) [Example 8-5, (3R)-1-(5-methyl-2-{1-[4-(trifluoromethyl)phenyl]ethyl}pyrazolo[1,5-a]pyrimidin-7-yl)piperidin-3-ol] reads 365 nM. Under `Cc1cc(NC2CC(F)C2)n2nc(C(C)c3ccc(C(F)(F)F)cc3)cc2n1` (stereo not shown) [Example 8-6, N-(3-fluorocyclobutyl)-5-methyl-2-{1-[4-(trifluoromethyl)phenyl]ethyl}pyrazolo[1,5-a]pyrimidin-7-amine] stands 509 nM. As to `CC(=O)N[C@H]1CCN(c2cc(C)nc3cc(C(C)c4ccc(C(F)(F)F)cc4)nn23)C1` (stereo partly drawn) [Example 8-7, N-[(3S)-1-(5-methyl-2-{1-[4-(trifluoromethyl)phenyl]ethyl}pyrazolo[1,5-a]pyrimidin-7-yl)pyrrolidin-3-yl]acetamide], the half-maximal effective concentration (EC50) stood at 2000 nM.

Regarding `Cc1cc(NC2(C)CC2)n2nc(C(C)c3ccc(C(F)(F)F)cc3)cc2n1` (stereo not shown) [Example 8-8, 5-methyl-N-(1-methylcyclopropyl)-2-{1-[4-(trifluoromethyl)phenyl]ethyl}pyrazolo[1,5-a]pyrimidin-7-amine], the EC50 is 746 nM. For the molecule `Cc1cc(N2CCCCC2CO)n2nc(C(C)c3ccc(C(F)(F)F)cc3)cc2n1` (stereo not shown) [Example 8-9, [1-(5-methyl-2-{1-[4-(trifluoromethyl)phenyl]ethyl}pyrazolo[1,5-a]pyrimidin-7-yl)piperidin-2-yl]methanol], the EC50 was 344 nM.

With `Cc1cc(N2CC[C@H]2C(=O)O)n2nc(C(C)c3ccc(C(F)(F)F)cc3)cc2n1` (stereo partly drawn) [Example 8-10, (2S)-1-(5-methyl-2-{1-[4-(trifluoromethyl)phenyl]ethyl}pyrazolo[1,5-a]pyrimidin-7-yl)azetidine-2-carboxylic acid], the EC50 is > 10000 nM. Consider `Cc1cc(N2CCC(F)CC2)n2nc(C(C)c3ccc(C(F)(F)F)cc3)cc2n1` (stereo not shown) [Example 8-11, 7-(4-fluoropiperidin-1-yl)-5-methyl-2-{1-[4-(trifluoromethyl)phenyl]ethyl}pyrazolo[1,5-a]pyrimidine], for which the EC50 amounted to 378 nM. Under `Cc1cc(N2CCCC(F)C2)n2nc(C(C)c3ccc(C(F)(F)F)cc3)cc2n1` (stereo not shown) [Example 8-12, 7-(3-fluoropiperidin-1-yl)-5-methyl-2-{1-[4-(trifluoromethyl)phenyl]ethyl}pyrazolo[1,5-a]pyrimidine] stands 370 nM; under `Cc1cc(N2CCNC(=O)C2CCO)n2nc(C(C)c3ccc(C(F)(F)F)cc3)cc2n1` (stereo not shown) [Example 8-13, 3-(2-hydroxyethyl)-4-(5-methyl-2-{1-[4-(trifluoromethyl)phenyl]ethyl}pyrazolo[1,5-a]pyrimidin-7-yl)piperazin-2-one], 2550 nM; under `Cc1cc(NCC2CC(F)(F)C2)n2nc(C(C)c3ccc(C(F)(F)F)cc3)cc2n1` (stereo not shown) [Example 8-14, N-[(3,3-difluorocyclobutyl)methyl]-5-methyl-2-{1-[4-(trifluoromethyl)phenyl]ethyl}pyrazolo[1,5-a]pyrimidin-7-amine], 593 nM. The result for `Cc1cc(N2CCC(F)(F)C2)n2nc(C(C)c3ccc(C(F)(F)F)cc3)cc2n1` (stereo not shown) [Example 8-15, 7-(3,3-difluoropyrrolidin-1-yl)-5-methyl-2-{1-[4-(trifluoromethyl)phenyl]ethyl}pyrazolo[1,5-a]pyrimidine] reads 570 nM; that for `CC(=O)N[C@@H]1CCN(c2cc(C)nc3cc(C(C)c4ccc(C(F)(F)F)cc4)nn23)C1` (stereo partly drawn) [Example 8-16, N-[(3R)-1-(5-methyl-2-{1-[4-(trifluoromethyl)phenyl]ethyl}pyrazolo[1,5-a]pyrimidin-7-yl)pyrrolidin-3-yl]acetamide], 2180 nM. Under `Cc1cc(N2CCCC(F)(F)C2)n2nc(C(C)c3ccc(C(F)(F)F)cc3)cc2n1` (stereo not shown) [Example 8-17, 7-(3,3-difluoropiperidin-1-yl)-5-methyl-2-{1-[4-(trifluoromethyl)phenyl]ethyl}pyrazolo[1,5-a]pyrimidine] stands 760 nM; under `Cc1cc(N2CCCCC2=O)n2nc(C(C)c3ccc(C(F)(F)F)cc3)cc2n1` (stereo not shown) [Example 8-18, 1-(5-methyl-2-{1-[4-(trifluoromethyl)phenyl]ethyl}pyrazolo[1,5-a]pyrimidin-7-yl)piperidin-2-one], 746 nM. On to `Cc1cc(NC(C)(C)C)n2nc(C(C)c3ccc(C(F)(F)F)cc3)cc2n1` (stereo not shown) [Example 8-19, N-tert-butyl-5-methyl-2-{1-[4-(trifluoromethyl)phenyl]ethyl}pyrazolo[1,5-a]pyrimidin-7-amine], for which the EC50 came to 274 nM. With `Cc1cc(NC2CC(F)(F)C2)n2nc(C(C)c3ccc(C(F)(F)F)cc3)cc2n1` (stereo not shown) [Example 8-20, N-(3,3-difluorocyclobutyl)-5-methyl-2-{1-[4-(trifluoromethyl)phenyl]ethyl}pyrazolo[1,5-a]pyrimidin-7-amine], the EC50 was 500 nM.

On to `Cc1cc(N2CCC3(CC2)COC3)n2nc(C(C)c3ccc(C(F)(F)F)cc3)cc2n1` (stereo not shown) [Example 8-21, 5-methyl-7-(2-oxa-7-azaspiro[3.5]non-7-yl)-2-{1-[4-(trifluoromethyl)phenyl]ethyl}pyrazolo[1,5-a]pyrimidine], for which the EC50 worked out at 561 nM.

Turning to `Cc1cc(N2CCC(C(N)=O)C2)n2nc(C(C)c3ccc(C(F)(F)F)cc3)cc2n1` (stereo not shown) [Example 8-22, 1-(5-methyl-2-{1-[4-(trifluoromethyl)phenyl]ethyl}pyrazolo[1,5-a]pyrimidin-7-yl)pyrrolidine-3-carboxamide], the EC50 worked out at 771 nM.
